Data taken from patent US20060252807A1, “Novel ortho-terphenyl inhibitors of p38 kinase and methods of treating inflammatory disorders” (Kalypsys, Inc., priority 2005, published 2006).
pIC50: −log10 of the molar value.

Target: T1, active p38 alpha enzyme (Upstate Biotechnology) (Homo sapiens, UniProt Q16539)
T1 construct: purchased Upstate Biotechnology
Assay: p38α biochemical assay (ATP turnover, luminescent detection, Cambrex PKlight)
Conditions: p38α kinase; Table 1 Biological Activity
In short: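 Luminescent ATP-depletion readout measures total ATP turnover by p38α phosphorylating whole MapkapK2 protein. ATP 1.4 uM final; 30C, 2 h. Compounds delivered from DMSO.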

T1 sequence (Q16539 whole entry): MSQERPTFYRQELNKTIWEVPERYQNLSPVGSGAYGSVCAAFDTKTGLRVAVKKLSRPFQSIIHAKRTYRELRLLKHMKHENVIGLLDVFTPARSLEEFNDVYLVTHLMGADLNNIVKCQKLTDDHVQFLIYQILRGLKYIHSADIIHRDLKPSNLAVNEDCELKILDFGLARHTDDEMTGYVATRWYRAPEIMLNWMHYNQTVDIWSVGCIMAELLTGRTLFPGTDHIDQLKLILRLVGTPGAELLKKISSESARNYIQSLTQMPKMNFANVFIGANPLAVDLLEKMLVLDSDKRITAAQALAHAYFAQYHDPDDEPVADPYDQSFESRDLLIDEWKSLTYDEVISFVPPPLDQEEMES

Structure (SMILES)	pIC50
O=C(NCCc1ccccc1Cl)c1csc(-c2c(-c3ccc(F)cc3)n[nH]c2C2CCNCC2)n1 [Example 2126]	< 6.00
O=C(NCCc1ccc(Cl)cc1)c1csc(-c2c(-c3ccc(F)cc3)n[nH]c2C2CCNCC2)n1 [Example 2127]	< 6.00
O=C(NCCc1cccc(Cl)c1)c1csc(-c2c(-c3ccc(F)cc3)n[nH]c2C2CCNCC2)n1 [Example 2128]	< 6.00
CC1(C)CC(NC(=O)c2csc(-c3c(-c4ccc(F)cc4)n[nH]c3C3CCNCC3)n2)CC(C)(C)N1 [Example 2129]	< 6.00
CCN(CC)CCCC(C)NC(=O)c1csc(-c2c(-c3ccc(F)cc3)n[nH]c2C2CCNCC2)n1 (stereo not shown) [Example 2130]	< 6.00
O=C(NCc1ccc(F)c(Cl)c1)c1csc(-c2c(-c3ccc(F)cc3)n[nH]c2C2CCNCC2)n1 [Example 2131]	< 6.00
N#CCCN(Cc1ccccc1)C(=O)c1csc(-c2c(-c3ccc(F)cc3)n[nH]c2C2CCNCC2)n1 [Example 2132]	< 6.00
CC(C)(C)OC(=O)NCCNC(=O)c1csc(-c2c(-c3ccc(F)cc3)n[nH]c2C2CCNCC2)n1 [Example 2133]	< 6.00
O=C(NCCc1c[nH]c2ccccc12)c1csc(-c2c(-c3ccc(F)cc3)n[nH]c2C2CCNCC2)n1 [Example 2134]	< 6.00
CC(C)(C)c1ccc(CNC(=O)c2csc(-c3c(-c4ccc(F)cc4)n[nH]c3C3CCNCC3)n2)cc1 [Example 2135]	< 6.00
CN(CCCNC(=O)c1csc(-c2c(-c3ccc(F)cc3)n[nH]c2C2CCNCC2)n1)c1ccccc1 [Example 2136]	< 6.00
O=C(NCC1(O)CCCCC1)c1csc(-c2c(-c3ccc(F)cc3)n[nH]c2C2CCNCC2)n1 [Example 2137]	< 6.00
COc1cc(CNC(=O)c2csc(-c3c(-c4ccc(F)cc4)n[nH]c3C3CCNCC3)n2)cc(OC)c1 [Example 2138]	< 6.00
COc1ccc(CNC(=O)c2csc(-c3c(-c4ccc(F)cc4)n[nH]c3C3CCNCC3)n2)cc1OC [Example 2139]	< 6.00
O=C(CNC(=O)c1csc(-c2c(-c3ccc(F)cc3)n[nH]c2C2CCNCC2)n1)c1ccccc1 [Example 2140]	< 6.00
CCOC(=O)N1CCC(NC(=O)c2csc(-c3c(-c4ccc(F)cc4)n[nH]c3C3CCNCC3)n2)CC1 [Example 2141]	< 6.00
CC(C)(C)OC(=O)NCCCNC(=O)c1csc(-c2c(-c3ccc(F)cc3)n[nH]c2C2CCNCC2)n1 [Example 2142]	< 6.00
O=C(NCc1ccc(C(F)(F)F)cc1)c1csc(-c2c(-c3ccc(F)cc3)n[nH]c2C2CCNCC2)n1 [Example 2143]	< 6.00
O=C(NCc1cccc(C(F)(F)F)c1)c1csc(-c2c(-c3ccc(F)cc3)n[nH]c2C2CCNCC2)n1 [Example 2144]	< 6.00
O=C(NCc1ccc(Cl)c(Cl)c1)c1csc(-c2c(-c3ccc(F)cc3)n[nH]c2C2CCNCC2)n1 [Example 2145]	< 6.00
O=C(NCc1ccc(Cl)cc1Cl)c1csc(-c2c(-c3ccc(F)cc3)n[nH]c2C2CCNCC2)n1 [Example 2146]	< 6.00
O=C(NC1CCN(Cc2ccccc2)C1)c1csc(-c2c(-c3ccc(F)cc3)n[nH]c2C2CCNC2)n1 (stereo not shown) [Example 2147]	< 6.00
COc1ccc(OC)c(CCNC(=O)c2csc(-c3c(-c4ccc(F)cc4)n[nH]c3C3CCNCC3)n2)c1 [Example 2148]	< 6.00
CN(C)c1ccc(CNC(=O)c2csc(-c3c(-c4ccc(F)cc4)n[nH]c3C3CCNCC3)n2)cc1 [Example 2149]	< 6.00
COc1ccc(CNC(=O)c2csc(-c3c(-c4ccc(F)cc4)n[nH]c3C3CCNCC3)n2)cc1O [Example 2150]	≥ 6.00

Structure (SMILES)	pIC50
O=C(NC1CCN(Cc2ccccc2)CC1)c1csc(-c2c(-c3ccc(F)cc3)n[nH]c2C2CCNCC2)n1 [Example 2151]	< 6.00
O=C(NCc1ccccc1OC(F)(F)F)c1csc(-c2c(-c3ccc(F)cc3)n[nH]c2C2CCNCC2)n1 [Example 2152]	< 6.00
NS(=O)(=O)c1ccc(CCNC(=O)c2csc(-c3c(-c4ccc(F)cc4)n[nH]c3C3CCNCC3)n2)cc1 [Example 2153]	< 6.00
COc1ccc(C(=O)CNC(=O)c2csc(-c3c(-c4ccc(F)cc4)n[nH]c3C3CCNCC3)n2)cc1 [Example 2154]	< 6.00
O=C(NCCc1ccc2c(c1)OCO2)c1csc(-c2c(-c3ccc(F)cc3)n[nH]c2C2CCNCC2)n1 [Example 2155]	< 6.00
O=C(NCCC(c1ccccc1)c1ccccc1)c1csc(-c2c(-c3ccc(F)cc3)n[nH]c2C2CCNCC2)n1 [Example 2156]	< 6.00
Cc1ccc(S(=O)(=O)NCCNC(=O)c2csc(-c3c(-c4ccc(F)cc4)n[nH]c3C3CCNCC3)n2)cc1 [Example 2157]	< 6.00
Cc1nc(-c2ccc(F)cc2)c(-c2nc(C(=O)NC(C)C)cs2)[nH]1 [Example 2158, 2-|5-(4-Fluoro-phenyl)-2-methyl-3H-imidazol-4-yl|-thiazole-4-carboxylic acid isopropylamide]	≥ 6.00
Cc1nc(-c2ccc(F)cc2)c(-c2nc(C(N)=O)cs2)o1 [Example 2159, 2-|4-(4-Fluoro-phenyl)-2-methyl-oxazol-5-yl|-thiazole-4-carboxylic acid amide]	< 6.00
CC(C)NC(=O)c1coc(-c2c(-c3ccc(F)cc3)noc2C2CCNCC2)n1 [Example 2160, 2-|3-(4-Fluoro-phenyl)-5-piperidin-4-yl-isoxazol-4-yl|-oxazole-4-carboxylic acid isopropylamide]	≥ 6.00
COCCOCn1nc(-c2ccc(F)cc2)c(-c2nc(C=O)cs2)c1C [Example 2161, 2-|3-(4-Fluoro-phenyl)-1-(2-methoxy-ethoxymethyl)-5-methyl-1H-pyrazol-4-yl|-thiazole-4-carbaldehyde]	< 6.00
CC(C)NC(=O)c1csc(-c2c(-c3ccc(Cl)cc3)ncn2C2CCNCC2)n1 [Example 2162, 2-|5-(4-Chloro-phenyl)-3-piperidin-4-yl-3H-imidazol-4-yl|-thiazole-4-carboxylic acid isopropylamide]	< 6.00
CC(=O)N1CCC(n2cnc(-c3ccc(Cl)cc3)c2-c2nc(C(=O)NC(C)C)cs2)CC1 [Example 2163]	≥ 6.00
CC(C)NC(=O)c1csc(-c2c(-c3ccc(F)cc3)n[nH]c2C2CCN(C(=O)[C@H](C)O)CC2)n1 [Example 2165, 2-{3-(4-Fluoro-phenyl)-5-|1-(2-hydroxy-propionyl)-piperidin-4-yl|-1H-pyrazol-4-yl}-thiazole-4-carboxylic acid isopropylamide]	≥ 6.00
CC(C)NC(=O)c1csc(-c2c(-c3ccc(F)cc3)n[nH]c2C2CCN(C(=O)C(C)(C)O)CC2)n1 [Example 2166, 2-{3-(4-Fluoro-phenyl)-5-|1-(2-hydroxy-2-methyl-propionyl)-piperidin-4-yl|-1H-pyrazol-4-yl}-thiazole-4-carboxylic acid isopropylamide]	≥ 6.00
CC(=O)N1CCC(c2[nH]nc(-c3ccc(F)cc3)c2-c2nc(C(=O)NC(C)C)cs2)CC1 [Example 2167, 2-|5-(1-Acetyl-piperidin-4-yl)-3-(4-fluoro-phenyl)-1H-pyrazol-4-yl|-thiazole-4-carboxylic acid isopropylamide]	≥ 6.00
COCCOCC(=O)N1CCC(c2[nH]nc(-c3ccc(F)cc3)c2-c2nc(C(=O)NC(C)C)cs2)CC1 [Example 2168, 2-(3-(4-Fluoro-phenyl)-5-{1-|2-(2-methoxy-ethoxy)-acetyl|-piperidin-4-yl}-1H-pyrazol-4-yl)-thiazole-4-carboxylic acid isopropylamide]	≥ 6.00
CC(C)NC(=O)c1csc(-c2c(-c3ccc(F)cc3)n[nH]c2C2CCN(C(=O)c3ccccn3)CC2)n1 [Example 2169, 2-{3-(4-Fluoro-phenyl)-5-|1-(pyridine-2-carbonyl)-piperidin-4-yl|-1H-pyrazol-4-yl}-thiazole-4-carboxylic acid isopropylamide]	≥ 6.00
CC(C)NC(=O)c1csc(-c2c(-c3ccc(F)cc3)n[nH]c2C2CCN(C(=O)c3ccccc3)CC2)n1 [Example 2170, 2-|5-(1-Benzoyl-piperidin-4-yl)-3-(4-fluoro-phenyl)-1H-pyrazol-4-yl|-thiazole-4-carboxylic acid isopropylamide]	< 6.00
CC(C)NC(=O)c1csc(-c2c(-c3ccc(F)cc3)n[nH]c2C2CCN(C(=O)c3ccc(C#N)cc3)CC2)n1 [Example 2171, 2-|5-|1-(4-Cyano-benzoyl)-piperidin-4-yl|-3-(4-fluoro-phenyl)-1H-pyrazol-4-yl|-thiazole-4-carboxylic acid isopropylamide]	< 6.00
COC(=O)N1CCC(c2[nH]nc(-c3ccc(F)cc3)c2-c2nc(C(=O)NC(C)C)cs2)CC1 [Example 2172, 4-|5-(4-Fluoro-phenyl)-4-(4-isopropyl-carbamoyl-thiazol-2-yl)-2H-pyrazol-3-yl|-piperidine-1-carboxylic acid methyl ester]	≥ 6.00
COCC(=O)N1CCC(c2[nH]nc(-c3ccc(F)cc3)c2-c2nc(C(=O)NC(C)C)cs2)CC1 [Example 2173, 2-{3-(4-Fluoro-phenyl)-5-|1-(2-methoxy-acetyl)-piperidin-4-yl|-1H-pyrazol-4-yl}-thiazole-4-carboxylic acid isopropylamide]	≥ 6.00
CC(C)NC(=O)c1csc(-c2c(-c3ccc(F)cc3)n[nH]c2C2CCN(C(=O)C(F)(F)F)CC2)n1 [Example 2174, 2-{3-(4-Fluoro-phenyl)-5-|1-(2,2,2-trifluoro-acetyl)-piperidin-4-yl|-1H-pyrazol-4-yl}-thiazole-4-carboxylic acid isopropylamide]	≥ 6.00
CC(C)NC(=O)c1csc(-c2c(-c3ccc(F)cc3)n[nH]c2C2CCN(C(=O)c3ncc[nH]3)CC2)n1 [Example 2175, 2-{3-(4-Fluoro-phenyl)-5-|1-(1H-imidazole-2-carbonyl)-piperidin-4-yl|-1H-pyrazol-4-yl}-thiazole-4-carboxylic acid isopropylamide]	≥ 6.00
